Measurements: patent US20090281090A1, “BIOMARKERS FOR THE PREDICTION OF RESPONSIVENESS TO CLOZAPINE TREATMENT” (NOVARTIS AG, priority 2004, published 2009)

Legend:
[1] = system: patients with schizophrenia or schizoaffective disorders; test: InterSePT pharmacogenetic analysis: DAT1 3'UTR VNTR polymorphism vs Type 1 event / drug response; type: in vivo, human; settings: for Adjusted Hazard Ratio (95% CI), association between VNTR polymorphism and Type 1 event: Cox model adjusted for age, gender, substance abuse, lifetime suicide attempts; for Unadjusted Hazard Ratio (95% CI), association between VNTR polymorphism and Type 1 event: Cox proportional hazards model
Experimental: Association between a VNTR polymorphism in the 3′UTR region of the DAT1 gene and clozapine response. The objective of this EXAMPLE was to evaluate potential association between a VNTR polymorphism in the 3′UTR region of the Dopamine Transporter 1 gene (SLC6A3; DAT1) and drug response in the patients with schizophrenia or schizoaffective disorders treated with clozapine.
A retrospective pharmacogenetic analysis was conducted in an attempt to evaluate potential association between a variable number of tandem repeats (VNTR) polymorphism in the 3′UTR region of the DAT1 gene and drug response in the patients with schizophrenia or schizoaffective disorders treated with clozapine.
A multicenter, randomized, two-year study comparing the risk for suicidal behaviour in patients treated with clozapine vs olanzapine had already been conducted in patients with schizophrenia or schizoaffective disorders (see above). […] See, published PCT patent application WO 2004/074513.
Genotyping. Four hundred and two samples from the patients enrolled in the InterSePT study (see above) were collected and genotyped for the VNTR polymorphism. A total of 402 subjects enrolled in the InterSePT study consented to Pharmacogenetics study in accordance with protocols approved by local ethics committees. 15 ml of blood were collected from the patients at the trial sites. The DNA was extracted by Covance (Indianapolis, USA) using the PUREGENE™ DNA Isolation Kit (D50K) according to the manufacturer's recommendations. VNTR genotyping was performed using PCR approach as described by Kidd (Kidd Laboratory, http://info.med.yale.edu/genetics/kkidd/SLC6A3—3VNTR.html). The sense and antisense PCR primers were 5′-GGTGTAGGGAACGGCCTGAGAG-3′ (SEQ ID NO:3) and 5′-CTTCCTGGAGGTCACGGCTCAAGG-3′ (SEQ ID NO:4), respectively. Approximately 100-200 ng of genomic DNA was needed for each assay. Thirty cycles of PCR were performed with the condition of 94° C. (30″), 62° C. (30″) and 72° C. (30″). PCR products were analyzed using 2% agarose gel.
Clinical assessments. For the primary efficacy variable, time (in days, after randomization) to meeting any one of the following two criteria: (a) a significant suicide attempt; and (b) hospitalization due to imminent suicide risk. Type 1 Event is defined as combination of above two items. For secondary efficacy variables, the following were determined: (a) percentage of subjects with significant suicide attempts; (b) percentage of subjects with hospitalization due to imminent suicide risk; (c) change from baseline in the total score of the Positive and Negative Syndrome Scale (PANSS); (d) change from baseline in the Positive subtotal of PANSS; and (e) change from baseline in the Negative subtotal of PANSS.
Statistic analysis. The SAS Version 8.2 for Windows package was used for statistical analysis. The continuous and dischotomous variables in demographic differences between the genotype groups were compared using non-parametric ANOVA and Fisher's exact test, respectively. The differential effects of genotypes on the time to Type 1 event were evaluated using log rank test. Age, gender, substance abuse, and lifetime suicide attempts were adjusted in further analysis using the Cox proportional hazards model.

[2] = system: patients with schizophrenia or schizoaffective disorders; test: as above; type: in vivo, human
[3] = All with schizoaffective disorder, genotype L/L (10≦/10≦)
[4] = All with schizoaffective disorder, genotype S/L (10≦/9≧)
[5] = All with schizoaffective disorder, genotype S/S (9≧/9≧)
[6] = All with schizophrenia, genotype L/L (10≦/10≦)
[7] = All with schizophrenia, genotype S/L (10≦/9≧)
[8] = All with schizophrenia, genotype S/S (9≧/9≧)
[9] = Caucasian, VNTR genotype 9≧/9≧, end of study
[10] = Caucasian, VNTR genotype 10≦/9≧, end of study
[11] = Caucasian, VNTR genotype 10≦/10≦, end of study
[12] = Caucasians with schizoaffective disorder, genotype L/L (10≦/10≦)
[13] = Caucasians with schizoaffective disorder, genotype S/L (10≦/9≧)
[14] = Caucasians with schizoaffective disorder, genotype S/S (9≧/9≧)
[15] = Caucasians with schizophrenia, genotype L/L (10≦/10≦)
[16] = Caucasians with schizophrenia, genotype S/L (10≦/9≧)
[17] = Caucasians with schizophrenia, genotype S/S (9≧/9≧)
[18] = Whole race group, VNTR genotype 9≧/9≧, end of study
[19] = Whole race group, VNTR genotype 10≦/9≧, end of study
[20] = Whole race group, VNTR genotype 10≦/10≦, end of study

For `CN1CCN(C2=Nc3cc(Cl)ccc3Nc3ccccc32)CC1` [Clozapine, 8-chloro-11-(4-methyl-1-piperazinyl)-5H-dibenzo[be][1,4]diazepine], the “End point Type 1 event: No” value [1, 3] was 30 (75%) numbers of subjects (%), the “End point Type 1 event: Yes” value [1, 3] was 10 (25%) numbers of subjects (%) and the “End point Type 1 event: No” value [1, 4] was 25 (83%) numbers of subjects (%). The “End point Type 1 event: Yes” value [1, 4] was 5 (17%) numbers of subjects (%), the “End point Type 1 event: No” value [1, 5] was 7 (70%) numbers of subjects (%) and the “End point Type 1 event: Yes” value [1, 5] was 3 (30%) numbers of subjects (%). The “End point Type 1 event: No” value [1, 6] was 53 (87%) numbers of subjects (%), the “End point Type 1 event: Yes” value [1, 6] was 8 (13%) numbers of subjects (%) and the “End point Type 1 event: No” value [1, 7] was 35 (87%) numbers of subjects (%). For the same molecule, the “End point Type 1 event: Yes” value [1, 7] was 5 (13%) numbers of subjects (%), the “End point Type 1 event: No” value [1, 8] was 4 (50%) numbers of subjects (%) and the “End point Type 1 event: Yes” value [1, 8] was 4 (50%) numbers of subjects (%). For the same molecule, the “End point Type 1 event: No” value [1, 9] was 9 (56%) numbers of subjects (%), the “End point Type 1 event: Yes” value [1, 9] was 7 (44%) numbers of subjects (%) and the “End point Type 1 event: No” value [1, 10] was 45 (85%) numbers of subjects (%). For the same molecule, the “End point Type 1 event: Yes” value [1, 10] was 8 (15%) numbers of subjects (%), the “End point Type 1 event: No” value [1, 11] was 67 (83%) numbers of subjects (%) and the “End point Type 1 event: Yes” value [1, 11] was 14 (17%) numbers of subjects (%). For the same molecule, the “End point Type 1 event: No” value [1, 12] was 28 (76%) numbers of subjects (%), the “End point Type 1 event: Yes” value [1, 12] was 9 (24%) numbers of subjects (%) and the “End point Type 1 event: No” value [1, 13] was 22 (85%) numbers of subjects (%). The “End point Type 1 event: Yes” value [1, 13] was 4 (15%) numbers of subjects (%), the “End point Type 1 event: No” value [1, 14] was 7 (70%) numbers of subjects (%) and the “End point Type 1 event: Yes” value [1, 14] was 3 (30%) numbers of subjects (%). The “End point Type 1 event: No” value [1, 15] was 39 (89%) numbers of subjects (%), the “End point Type 1 event: Yes” value [1, 15] was 5 (11%) numbers of subjects (%) and the “End point Type 1 event: No” value [1, 16] was 23 (85%) numbers of subjects (%). For the same molecule, the “End point Type 1 event: Yes” value [1, 16] was 4 (15%) numbers of subjects (%), the “End point Type 1 event: No” value [1, 17] was 2 (33%) numbers of subjects (%) and the “End point Type 1 event: Yes” value [1, 17] was 4 (67%) numbers of subjects (%). The “Adjusted Hazard Ratio (95% CI), association between VNTR polymorphism and Type 1 event” value ([1]; Caucasians) was 0.296 (0.120-0.733), the “Unadjusted Hazard Ratio (95% CI), association between VNTR polymorphism and Type 1 event” value (from here on “Unadjusted Hazard Ratio (95% CI)”) ([1]; Caucasians) was 0.307 (0.130-0.723) and the “End point Type 1 event: No” value [1, 18] was 11 (61%) numbers of subjects (%). The “End point Type 1 event: Yes” value [1, 18] was 7 (39%) numbers of subjects (%), the “End point Type 1 event: No” value [1, 19] was 60 (86%) numbers of subjects (%) and the “End point Type 1 event: Yes” value [1, 19] was 10 (14%) numbers of subjects (%). The “End point Type 1 event: No” value [1, 20] was 83 (82%) numbers of subjects (%), the “End point Type 1 event: Yes” value [1, 20] was 18 (18%) numbers of subjects (%) and the “patients calculated to be poor responders” value ([1]; according to the SLC6A3 genotypes) was “about 10%”. For the same molecule, the “Adjusted Hazard Ratio (95% CI), association between VNTR polymorphism and Type 1 event” value ([1]; whole population) was 0.396 (0.167-0.936), the “Unadjusted Hazard Ratio (95% CI)” value ([1]; whole population) was 0.342 (0.148-0.788) and the “patients who experienced Type 1 events at the end of study” value ([2]; subpopulation with the two risk factors (VNTR in 3'-UTR and exon 9 polymorphism of SLC6A3)) was “About 40%”. The “patients who had Type 1 events at the end of study” value ([2]; subpopulation without the two risk factors (VNTR in 3'-UTR and exon 9 polymorphism of SLC6A3)) was 15%.
For `Cc1cc2c(s1)Nc1ccccc1N=C2N1CCN(C)CC1` [Olanzapine, olanzapine], the “End point Type 1 event: No” value [1, 3] was 22 (60%) numbers of subjects (%), the “End point Type 1 event: Yes” value [1, 3] was 15 (40%) numbers of subjects (%) and the “End point Type 1 event: No” value [1, 4] was 22 (67%) numbers of subjects (%). For the same molecule, the “End point Type 1 event: Yes” value [1, 4] was 11 (33%) numbers of subjects (%), the “End point Type 1 event: No” value [1, 5] was 4 (57%) numbers of subjects (%) and the “End point Type 1 event: Yes” value [1, 5] was 3 (43%) numbers of subjects (%). For the same molecule, the “End point Type 1 event: No” value [1, 6] was 50 (82%) numbers of subjects (%), the “End point Type 1 event: Yes” value [1, 6] was 11 (18%) numbers of subjects (%) and the “End point Type 1 event: No” value [1, 7] was 32 (76%) numbers of subjects (%). The “End point Type 1 event: Yes” value [1, 7] was 10 (24%) numbers of subjects (%), the “End point Type 1 event: No” value [1, 8] was 8 (80%) numbers of subjects (%) and the “End point Type 1 event: Yes” value [1, 8] was 2 (20%) numbers of subjects (%). The “End point Type 1 event: No” value [1, 9] was 6 (60%) numbers of subjects (%), the “End point Type 1 event: Yes” value [1, 9] was 4 (40%) numbers of subjects (%) and the “End point Type 1 event: No” value [1, 10] was 45 (76%) numbers of subjects (%). The “End point Type 1 event: Yes” value [1, 10] was 14 (24%) numbers of subjects (%), the “End point Type 1 event: No” value [1, 11] was 59 (76%) numbers of subjects (%) and the “End point Type 1 event: Yes” value [1, 11] was 19 (24%) numbers of subjects (%). The “End point Type 1 event: No” value [1, 12] was 22 (67%) numbers of subjects (%), the “End point Type 1 event: Yes” value [1, 12] was 11 (33%) numbers of subjects (%) and the “End point Type 1 event: No” value [1, 13] was 21 (75%) numbers of subjects (%). The “End point Type 1 event: Yes” value [1, 13] was 7 (25%) numbers of subjects (%), the “End point Type 1 event: No” value [1, 14] was 3 (50%) numbers of subjects (%) and the “End point Type 1 event: Yes” value [1, 14] was 3 (50%) numbers of subjects (%). For the same molecule, the “End point Type 1 event: No” value [1, 15] was 37 (82%) numbers of subjects (%), the “End point Type 1 event: Yes” value [1, 15] was 8 (18%) numbers of subjects (%) and the “End point Type 1 event: No” value [1, 16] was 24 (77%) numbers of subjects (%). For the same molecule, the “End point Type 1 event: Yes” value [1, 16] was 7 (23%) numbers of subjects (%), the “End point Type 1 event: No” value [1, 17] was 3 (75%) numbers of subjects (%) and the “End point Type 1 event: Yes” value [1, 17] was 1 (25%) numbers of subjects (%). For the same molecule, the “Adjusted Hazard Ratio (95% CI), association between VNTR polymorphism and Type 1 event” value ([1]; Caucasians) was 0.542 (0.185-1.590), the “Unadjusted Hazard Ratio (95% CI)” value ([1]; Caucasians) was 0.548 (0.194-1.547) and the “End point Type 1 event: No” value [1, 18] was 12 (71%) numbers of subjects (%). The “End point Type 1 event: Yes” value [1, 18] was 5 (29%) numbers of subjects (%), the “End point Type 1 event: No” value [1, 19] was 54 (72%) numbers of subjects (%) and the “End point Type 1 event: Yes” value [1, 19] was 21 (28%) numbers of subjects (%). For the same molecule, the “End point Type 1 event: No” value [1, 20] was 72 (73%) numbers of subjects (%), the “End point Type 1 event: Yes” value [1, 20] was 26 (27%) numbers of subjects (%) and the “Adjusted Hazard Ratio (95% CI), association between VNTR polymorphism and Type 1 event” value ([1]; whole population) was 0.824 (0.317-2.138). For the same molecule, the “Unadjusted Hazard Ratio (95% CI)” value ([1]; whole population) was 0.886 (0.353-2.225).
